Entries after “also recorded” stand apart in the source; their conditions may differ. Where two headings read alike, the source gives them in different places.
Tests used:
MCF-7 cells [1] = assay: DAPI staining of nuclear morphology; type: cell-based, human; conditions: MCF-7, 48 h, IC50 concentration
Method: After treatment for 48 h with DMSO (control) or aurovertin B (at their respective IC50 concentrations), cells were fixed in 4% paraformaldehyde for 15 min and stained with DAPI (2 μg/mL in PBS) for 15 min at 37° C. to detect apoptotic bodies (Sigma, St. Louis, Mo., USA). Results were determined by visual observation of nuclear morphology via fluorescence microscopy.

[2] = Viable cell number counting using trypan blue; type: cell-based; conditions: human; IMR-90 normal lung cells, same time points; read-out: cell viability rate
Source text: (§1) Apart from the traditional role in ATP production, ATP synthase may play critical roles in tumor cell metastases. Human lung adenocarcinoma cell lines CL1-1 and CL1-5 with different metastasis were obtained from the American Type Culture Collection (Manassas, Va.), and human normal lung cell line IMR-90 was obtained from Institute of Biomedical Sciences, Academia Sinica. The CL1-5 cell line is highly metastatic lung cancer cells, but the CL1-1 cell line is low metastatic lung cancer cells.
(§2) Human lung adenocarcinoma cell lines were maintained in DMEM at 37° C. with 5% CO2 (Gibco, Carlsbad, Calif., USA), 5% fetal bovine serum (Gibco), 50 units/mL penicillin, and 50 μg/mL streptomycin (Gibco). IMR-90 cells were culture in DMEM (Gibco), 0.01 mg/mL Insulin, 5 μg/mL Hydrocortisone.
(§3) As shown in FIG. 9 to FIG. 11, cell proliferation assays were in the presence of three F1-targeting H-ATP synthase inhibitors: aurovertin B, resveratol, and piceatannol. […] Thus, aurovertin B caused significant apotosis in CL1-1 and CL1-5 cells.

CL1-1 lung cancer cells = assay: cells; type: cell-based, human; conditions: for IC50: Homo sapiens
Source text: as §1, §2, §3

CL1-5 lung cancer cells = assay: cells; type: cell-based, human; conditions: for IC50: Homo sapiens
Source text: as §1, §2, §3

MCF-7 cells [3] = assay: Cell cycle analysis by flow cytometry; type: cell-based, human; conditions: 48 hours (control 63.1%)
Method: For the determination of cell cycle phase distribution, 3×10^5 MCF-7 cells were first exposed to various concentrations of aurovertin B in DMEM with 10% FBS for 48 hr by flow cytometric analysis. The cells were trypsinized, collected and fixed in 70% cold ethanol (−20° C.) overnight. After washing twice with PBS, cells were resuspended in PBS. RNase A (1 mg/mL) and PI (10 μg/mL) were added to the fixed cells for 30 min. The DNA content of cells was then analyzed with a FACSCanto instrument (Becton Dickinson, San Jose, Calif., USA). The percentage of cells in different phases of the cell cycle was calculated by MultiCycle (DeNovo software, Ontario, Canada).

[4] = system: HeLa cervical cancer cells; conditions: Acta Biochimica Polonica 2004; cited from earlier work
MCF-7 cells [5] = assay: Annexin V-FITC/PI analysis of apoptosis; type: cell-based, human; conditions: MCF-7, 0.05-10 μM, 48 hours
Method: Flow cytometric analysis was performed to identify and quantify the apoptotic cells by using Annexin V-FITC/PI (propidium iodide) apoptosis detection kit (Santa Cruz Biotechnology, Santa Cruz, Calif., USA). […] After incubation, floating and adherent cells were harvested. Cells were washed carefully with cold PBS at 4° C. Cell pellets were resuspended in […] of binding buffer. Annexin-V FITC (0.2 μg/100 μL) and PI (10 μg/mL) was added to the cells and left for incubation in the dark for 15 min at room temperature. All data were acquired by flow cytometry using a FACSCanto cytometer (Becton Dickinson, San Jose, Calif., USA). The flow cytometric analysis was performed using FCS Express 3.0 (DeNovo software).

[6] = system: T47D breast cancer cell line; assay: MTT assay, cell viability; type: cell-based; conditions: Homo sapiens, 48 hours
Method: as §2, with “breast cancer cell lines, MCF-7, MDA-MB231, T47D and human normal breast cell line MCF-10A, were obtained from the American Type Culture Collection (Manassas, Va.). Human breast cancer” for “lung adenocarcinoma”, “MCF-10A” for “IMR-90”
(§4) Cytotoxic effects on the growth and viability of cells were determined using MTT (3(4,5-dimethylthiazol-2-yl)-2,5-diphenyltetrazolium bromide, a tetrazole) assay. 10^4 cells/mL were plated in 96-well plates and allowed to attach for 24 hours. Cells were treated with […] of aurovertin B, resveratrol and piceatannol for 48 hours. At the end of the incubation period, MTT reagent (10 μL) was added to each 100 μL of culture. After incubation for 4 hr at 37° C., the formed water insoluble formazan dye was solubilized by adding 100 μL of DMSO to the culture wells. The plates were further incubated for 15 min at room temperature, and optical density (OD) of the wells was determined using ELISA microplate reader at a test wavelength of 570 nm. All experiments were performed in triplicates.

[7] = system: MDAMB231 breast cancer cell line; assay: MTT assay, cell viability; type: cell-based; conditions: Homo sapiens, MDA-MB-231, MDAMB231, 48 hours
Method: as §2, with “breast cancer cell lines, MCF-7, MDA-MB231, T47D and human normal breast cell line MCF-10A, were obtained from the American Type Culture Collection (Manassas, Va.). Human breast cancer” for “lung adenocarcinoma”, “MCF-10A” for “IMR-90”
as §4

[8] = system: MCF-7 breast cancer cells; assay: MTT assay, cell viability; type: cell-based, human; conditions: MCF-7, 48 hours
Method: as §2, with “breast cancer cell lines, MCF-7, MDA-MB231, T47D and human normal breast cell line MCF-10A, were obtained from the American Type Culture Collection (Manassas, Va.). Human breast cancer” for “lung adenocarcinoma”, “MCF-10A” for “IMR-90”
as §4

[9] = system: normal breast cell line MCF-10A; assay: MTT assay, cell viability; type: cell-based, human; conditions: MCF-10A, under these concentrations
Method: as §2, with “breast cancer cell lines, MCF-7, MDA-MB231, T47D and human normal breast cell line MCF-10A, were obtained from the American Type Culture Collection (Manassas, Va.). Human breast cancer” for “lung adenocarcinoma”, “MCF-10A” for “IMR-90”
as §4

[10] = MTT assay, cell viability; type: cell-based, human; conditions: human; MCF-10A normal breast cells, same time points; read-out: cell viability rate
Method: as §2, with “breast cancer cell lines, MCF-7, MDA-MB231, T47D and human normal breast cell line MCF-10A, were obtained from the American Type Culture Collection (Manassas, Va.). Human breast cancer” for “lung adenocarcinoma”, “MCF-10A” for “IMR-90”
as §4

Row | SMILES | morphological changes of the nuclei (MCF-7 cells [1]) | viability [2] | IC50 (CL1-1 lung cancer cells; CL1-1) | IC50 (CL1-5 lung cancer cells; CL1-5, CL1-5, highly metastatic lung cancer cells) | percentage of cells in G0/G1 phase (MCF-7 cells [3]; MCF-7, 0.1 μM) | percentage of cells in G0/G1 phase (MCF-7 cells [3]; MCF-7, 1 μM) | percentage of cells in G0/G1 phase (MCF-7 cells [3]; MCF-7, 5 μM) | release of cytochrome c and apoptosis [4] | early and late apoptotic/necrotic cells (MCF-7 cells [5]) | IC50 [6] | IC50 [7] | IC50 ([8]; Homo sapiens, MCF7, 48 h) | IC50 [8] | cytotoxicity to normal cells [9] | viability at 48 h [10] | cell viability rate (CL1-1 lung cancer cells; CL1-1) | cell viability rate (CL1-5 lung cancer cells; CL1-5) | IC50 (CL1-1 lung cancer cells; CL-11, CL1-1, low metastatic lung cancer cells, read-out: IC50) | IC50 (CL1-5 lung cancer cells; CL1-5, highly metastatic lung cancer cells, read-out: IC50)
1 | CC[C@H]1OC2(C)C(OC(C)=O)[C@@]1(C)OC(/C=C/C=C/C=C/c1oc(=O)cc(OC)c1C)[C@@H]2O (stereo partly drawn) [aurovertin B] | condensation and shrinkage of nuclei | ≥ 60% | 100 to 500 nM | ~500 nM | 66.5% | 78.5% | 81.2% | didn't affect the release of cytochrome c and apoptosis; also recorded: can't cause apotosis | dose-dependent increase in both early and late apoptotic/necrotic cells | 890 nM | 5520 nM | 100 nM | 90 nM | no apparent cytotoxicity | ≥ 80% | – | – | – | –
2 | Oc1cc(O)cc(/C=C/c2ccc(O)c(O)c2)c1 [piceatannol] | – | 60% | – | – | – | – | – | – | – | – | – | – | – | – | – | ≥ 80% | ≥ 80% | – | –
3 | Oc1ccc(C=Cc2cc(O)cc(O)c2)cc1 [resveratrol] | – | ≤ 60% | – | – | – | – | – | – | – | – | – | – | – | – | – | – | – | 10000 nM | ~5000 nM

Reference: patent US20100190845A1, “METHOD OF TREATING CANCER USING ATP SYNTHASE INHIBITORS” (NATIONAL TAIWAN UNIVERSITY, priority 2009, published 2010)
